Values after ≈ are worked out from the molar mass of the structure shown. Active and inactive are the calls of the source. The calls are words filed in the database; no cut-off is given here.
Legend:
Rattus norvegicus [1] = test: Blockade of capsaicin-induced hypothermia in rat at 3 mg/kg, po by telemetry model; type: functional
[2] = target: T1, Transient receptor potential cation channel subfamily V member 1 (Rattus norvegicus, UniProt O35433); test: Antagonist activity at rat TRPV1 expressed in CHO cells assessed as inhibition of capsaicin-induced calcium influx; type: functional, cell-based
T1 sequence (O35433 whole entry): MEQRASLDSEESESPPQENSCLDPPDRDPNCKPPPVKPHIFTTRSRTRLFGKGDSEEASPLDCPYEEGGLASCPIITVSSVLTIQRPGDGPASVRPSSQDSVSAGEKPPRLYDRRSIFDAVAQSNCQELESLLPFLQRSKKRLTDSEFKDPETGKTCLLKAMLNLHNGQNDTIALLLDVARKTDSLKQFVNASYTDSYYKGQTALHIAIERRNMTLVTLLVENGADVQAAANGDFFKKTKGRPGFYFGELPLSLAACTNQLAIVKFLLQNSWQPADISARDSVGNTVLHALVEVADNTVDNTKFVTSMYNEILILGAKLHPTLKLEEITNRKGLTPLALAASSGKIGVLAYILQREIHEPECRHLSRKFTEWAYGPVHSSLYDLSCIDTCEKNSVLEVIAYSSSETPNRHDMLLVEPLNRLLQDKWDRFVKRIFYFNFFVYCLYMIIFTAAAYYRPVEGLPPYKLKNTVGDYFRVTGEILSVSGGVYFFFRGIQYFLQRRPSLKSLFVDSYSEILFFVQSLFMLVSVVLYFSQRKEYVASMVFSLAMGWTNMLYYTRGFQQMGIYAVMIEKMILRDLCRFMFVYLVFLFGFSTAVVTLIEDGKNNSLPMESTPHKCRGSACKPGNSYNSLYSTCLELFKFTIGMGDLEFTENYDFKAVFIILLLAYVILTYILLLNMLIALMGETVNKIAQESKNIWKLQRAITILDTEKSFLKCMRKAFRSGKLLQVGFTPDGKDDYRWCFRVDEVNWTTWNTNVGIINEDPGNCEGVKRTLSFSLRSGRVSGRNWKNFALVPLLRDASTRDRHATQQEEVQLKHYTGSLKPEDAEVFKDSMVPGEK

[3] = In vivo clearance in Sprague-Dawley rat at 1 mg/kg, iv; type: ADME, organism-based; parameters: dose 1 mg/kg, route intravenous
[4] = Metabolic stability in rat liver microsomes assessed as clearance; type: ADME, Microsome
[5] = target: T1, Transient receptor potential cation channel subfamily V member 1; test: Antagonist activity at rat TRPV1 expressed in CHO cells assessed as inhibition of acid-induced calcium influx; type: functional, cell-based
[6] = Metabolic stability in human liver microsomes assessed as clearance; type: ADME, Microsome
[7] = target: T2, Transient receptor potential cation channel subfamily V member 1 (Homo sapiens, UniProt Q8NER1); test: Antagonist activity at human TRPV1 expressed in CHO cells assessed as inhibition of acid-induced calcium influx; type: functional, cell-based
T2 sequence (Q8NER1 whole entry): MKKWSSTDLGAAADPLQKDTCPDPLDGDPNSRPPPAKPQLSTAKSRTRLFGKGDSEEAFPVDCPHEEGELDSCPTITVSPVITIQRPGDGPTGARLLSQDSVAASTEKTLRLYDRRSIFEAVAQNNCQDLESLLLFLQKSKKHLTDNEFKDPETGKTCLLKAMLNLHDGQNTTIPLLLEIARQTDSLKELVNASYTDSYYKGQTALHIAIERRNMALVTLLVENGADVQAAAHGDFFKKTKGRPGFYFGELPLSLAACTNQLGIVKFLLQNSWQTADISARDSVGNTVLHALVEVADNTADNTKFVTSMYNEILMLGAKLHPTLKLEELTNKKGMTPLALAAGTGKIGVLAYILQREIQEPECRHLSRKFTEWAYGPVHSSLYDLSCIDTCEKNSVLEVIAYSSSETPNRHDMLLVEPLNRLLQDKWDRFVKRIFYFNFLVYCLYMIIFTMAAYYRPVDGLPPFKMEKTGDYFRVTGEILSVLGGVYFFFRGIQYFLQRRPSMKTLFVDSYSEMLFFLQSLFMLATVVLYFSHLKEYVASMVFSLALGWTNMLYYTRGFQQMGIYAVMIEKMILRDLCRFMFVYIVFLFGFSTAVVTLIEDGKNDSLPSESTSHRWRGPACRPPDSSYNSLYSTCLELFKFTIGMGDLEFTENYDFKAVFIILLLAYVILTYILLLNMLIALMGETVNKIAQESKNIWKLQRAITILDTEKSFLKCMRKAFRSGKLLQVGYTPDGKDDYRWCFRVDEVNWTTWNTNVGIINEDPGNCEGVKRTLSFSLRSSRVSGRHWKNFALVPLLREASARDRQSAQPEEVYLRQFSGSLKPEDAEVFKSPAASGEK

[8] = Clearance in Sprague-Dawley rat at 1 mg/kg, iv; type: ADME, organism-based; parameters: dose 1 mg/kg, route intravenous; settings: in vivo
[9] = Volume of distribution at steady state in Sprague-Dawley rat at 1 mg/kg, iv; type: ADME, organism-based; parameters: dose 1 mg/kg, route intravenous; settings: in vivo, read-out: Vss
[10] = Solubility in PBS by high-throughput automated format; type: physicochemical
[11] = Solubility in simulated intestinal fluid by high-throughput automated format; type: physicochemical
[12] = target: T2, Transient receptor potential cation channel subfamily V member 1; test: Antagonist activity at human TRPV1 expressed in CHO cells assessed as inhibition of capsaicin-induced calcium influx; type: functional, cell-based
[13] = target: T2, Transient receptor potential cation channel subfamily V member 1; test: Antagonist activity at human TRPV1 expressed in CHO cells assessed as inhibition of heat-induced calcium influx; type: functional, cell-based
[14] = Half life in Sprague-Dawley rat at 1 mg/kg, iv; type: ADME, organism-based; parameters: dose 1 mg/kg, route intravenous; settings: in vivo
[15] = AUC (0-infinity) in Sprague-Dawley rat at 1 mg/kg, iv; type: ADME, organism-based; parameters: time infinity, dose 1 mg/kg, route intravenous; settings: plasma
[16] = Bioavailability in fasted Sprague-Dawley rat at 5 mg/kg, po; type: ADME, organism-based; settings: in vivo
[17] = Aqueous solubility in hydrochloric acid by high-throughput automated format; type: physicochemical
[18] = Half life in rat; type: ADME, organism-based; settings: in vivo
Rattus norvegicus [19] = test: Inhibition of CFA-induced paw thermal hyperalgesia in Sprague-Dawley rat at 10 mg/kg, po relative to control; type: functional; parameters: scale not given: the % may be the effect or the level left
[20] = AUC (0 to infinity) in rat at 1 mg/kg, iv; type: ADME, organism-based; parameters: time infinity, dose 1 mg/kg, route intravenous; settings: plasma
Rattus norvegicus [21] = test: Efficacy in capsaicin-induced flinching in po dosed Sprague-Dawley rat; type: functional
[22] = Bioavailability in monkey at 1 mg/kg, po; type: ADME, organism-based, Macaca mulatta; settings: rhesus monkey, in vivo
[23] = Half life in rat at 1 mg/kg, iv; type: ADME, organism-based; parameters: dose 1 mg/kg, route intravenous; settings: in vivo
[24] = Volume of distribution at steady state in dog at 1 mg/kg, iv; type: ADME, organism-based, Canis lupus familiaris; parameters: dose 1 mg/kg, route intravenous; settings: in vivo, read-out: Vss
[25] = Bioavailability in fasted Sprague-Dawley rat at 3 mg/kg, po; type: ADME, organism-based; settings: in vivo
[26] = Volume of distribution at steady state at 1 mg/kg, iv; type: ADME, organism-based; parameters: dose 1 mg/kg, route intravenous; settings: rat, in vivo, read-out: Vss
[27] = Clearance in rat at 1 mg/kg, iv; type: ADME, organism-based; parameters: dose 1 mg/kg, route intravenous; settings: in vivo
[28] = Half life in dog at 1 mg/kg, iv; type: ADME, organism-based, Canis lupus familiaris; parameters: dose 1 mg/kg, route intravenous; settings: in vivo
[29] = Bioavailability in dog at 1 mg/kg, po; type: ADME, organism-based, Canis lupus familiaris; settings: in vivo
Rattus norvegicus [30] = test: Inhibition of capsaicin-induced flinching in Sprague-Dawley rat at 3 mg/kg, po upto 24 hrs; type: functional, organism-based; parameters: dose 3 mg/kg
[31] = Half life in monkey at 1 mg/kg, iv; type: ADME, organism-based, Macaca mulatta; parameters: dose 1 mg/kg, route intravenous; settings: rhesus monkey, in vivo
[32] = AUC (0-infinity) in monkey at 1 mg/kg, iv; type: ADME, organism-based, Macaca mulatta; parameters: time infinity, dose 1 mg/kg, route intravenous; settings: rhesus monkey, plasma
[33] = Clearance in monkey at 1 mg/kg, iv; type: ADME, organism-based, Macaca mulatta; parameters: dose 1 mg/kg, route intravenous; settings: rhesus monkey, in vivo
[34] = Volume of distribution at steady state in monkey at 1 mg/kg, iv; type: ADME, organism-based, Macaca mulatta; parameters: dose 1 mg/kg, route intravenous; settings: rhesus monkey, in vivo, read-out: Vss
[35] = AUC (0-infinity) in dog at 1 mg/kg, iv; type: ADME, organism-based, Canis lupus familiaris; parameters: dose 1 mg/kg, route intravenous, time infinity; settings: plasma
Rattus norvegicus [36] = test: Inhibition of CFA-induced paw thermal hyperalgesia in po dosed Sprague-Dawley rat; type: functional; settings: read-out: MED
[37] = Bioavailability in rat at 1 mg/kg, po; type: ADME, organism-based; settings: in vivo
[38] = Clearance in dog at 1 mg/kg, iv; type: ADME, organism-based, Canis lupus familiaris; parameters: dose 1 mg/kg, route intravenous; settings: in vivo

Nc1cnc2cccc(Oc3cc(-c4ccc(C(F)(F)F)cc4)ncn3)c2n1
Activity (Rattus norvegicus [1]): 100% | IC50 [2]: 63 nM | clearance [3]: 71.7 mL/min/kg | microsomal CLint [4]: 15 µL/min/mg | IC50 [5]: 16 nM | microsomal CLint [6]: < 14 µL/min/mg

Nc1nc2c(Oc3cc(-c4ccc(C(F)(F)F)cc4)ncn3)cccc2[nH]c1=O
IC50 [7]: 0.9 nM | clearance [8]: 3.28 mL/min/kg | Vd [9]: 1.69 L/kg | solubility [10]: < 1 µg/mL | clearance [3]: 4.33 mL/min/kg | solubility [11]: 9.2 µg/mL (≈ 23 µM) | microsomal CLint [4]: < 14 µL/min/mg | IC50 [12]: 0.8 nM | IC50 [13]: 0.4 nM | half-life [14]: 360 min | microsomal CLint [6]: < 14 µL/min/mg | AUC(0-inf) [15]: 5140 ng·h/mL | bioavailability [16]: 7% | solubility [17]: < 1 µg/mL

FC(F)(F)c1ccc(-c2cc(Oc3ccc4ccncc4c3)ncn2)cc1
IC50 [2]: 460 nM | IC50 [5]: > 4000 nM

FC(F)(F)c1ccc(-c2cc(Oc3ccc4cccnc4c3)ncn2)cc1
half-life [18]: 168 min

CCC(=O)Nc1nc2c(Oc3cc(-c4ccc(C(F)(F)F)cc4)ncn3)cccc2s1
IC50 [5]: 1500 nM

Nc1nc2c(Oc3cc(-c4ccc(C(F)(F)F)cc4)ncn3)cccc2s1
IC50 [2]: 1.2 nM | clearance [3]: 3.67 mL/min/kg | microsomal CLint [4]: 47 µL/min/mg | IC50 [5]: > 4000 nM | microsomal CLint [6]: < 5 µL/min/mg

FC(F)(F)c1ccc(-c2cc(Oc3ccnc4ccccc34)ncn2)cc1
IC50 [2]: > 4000 nM | IC50 [5]: > 4000 nM

FC(F)(F)c1ccc(-c2cc(Oc3ccc4ccccc4n3)ncn2)cc1
IC50 [5]: > 4000 nM

O=c1ccc2cccc(Oc3cc(-c4ccc(C(F)(F)F)cc4)ncn3)c2[nH]1
IC50 [2]: > 4000 nM | IC50 [5]: > 4000 nM

CC(=O)Nc1nc2c(Oc3cc(-c4ccc(C(F)(F)F)cc4)ncn3)cccc2s1 [AMG-517]
Activity (Rattus norvegicus [19]): 35% | AUC(0-inf) [20]: 8800 ng·h/mL | ED50 (Rattus norvegicus [21]): 0.35 mg/kg | IC50 [7]: 0.62 nM | clearance [8]: 3.17 mL/min/kg | bioavailability [22]: 52% | half-life [23]: 1860 min | Vd [24]: 7 L/kg | bioavailability [25]: 32% | Vd [9]: 1.56 L/kg | solubility [10]: < 1 µg/mL | clearance [3]: 4.17 mL/min/kg | Vd [26]: 4 L/kg | clearance [27]: 2 mL/min/kg | solubility [11]: 6.6 µg/mL (≈ 15.3 µM) | microsomal CLint [4]: 50 µL/min/mg | IC50 [12]: 0.76 nM | IC50 [13]: 1.3 nM | half-life [28]: 2460 min | bioavailability [29]: 23% | Activity (Rattus norvegicus [30]): Active | half-life [31]: 2.58 days | half-life [14]: 378 min | AUC(0-inf) [32]: 37000 ng·h/mL | microsomal CLint [6]: < 5 µL/min/mg | clearance [33]: 0.5 mL/min/kg | Vd [34]: 2.3 L/kg | AUC(0-inf) [15]: 5400 ng·h/mL | AUC(0-inf) [35]: 7400 ng·h/mL | minimal effective dose (Rattus norvegicus [36]): 0.83 mg/kg | solubility [17]: < 1 µg/mL | bioavailability [37]: 51% | clearance [38]: 2.33 mL/min/kg

CC(=O)N(C)c1nc2c(Oc3cc(-c4ccc(C(F)(F)F)cc4)ncn3)cccc2s1
IC50 [2]: > 4000 nM | IC50 [5]: 860 nM

Reference: ChEMBL document CHEMBL1145459, “Novel vanilloid receptor-1 antagonists: 2. Structure-activity relationships of 4-oxopyrimidines leading to the selection of a clinical candidate” (J Med Chem, 2007)
